Values joined by “and” are separate entries in the source; they are usually repeats but may differ in a detail not shown here. Equal entries are not always repeated. Inconclusive results and toxic doses are left out. Cut-off read from the data, not from the text of the source: active = T/C of 150% or more; inactive = T/C below 125%.
System: L1210 leukemia ip in BDF1 mice, survival T/C
Assay: NCI In Vivo Anticancer Drug Screen. Data for tumor model L1210 Leukemia (intraperitoneal) in B6D2F1 (BDF1) mice
Details: endpoint: mean survival time, higher = longer survival
Summary of the method: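 Transplanted-tumor mice were given test agent; controls received vehicle only. Survival readings from the two groups were divided (treated over control).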

[1] = dose: 50.0 mg/kg/injection, schedule: Q01DX001 (ip), vehicle: carboxymethylcellulose (CMC)
[2] = dose: 100.0 mg/kg/injection, schedule: Q01DX001 (ip), vehicle: carboxymethylcellulose (CMC)
[3] = dose: 200.0 mg/kg/injection, schedule: Q01DX001 (ip), vehicle: carboxymethylcellulose (CMC)
[4] = dose: 100.0 mg/kg/injection, schedule: Q01DX001 (ip), vehicle: saline with Tween-80
[5] = dose: 100.0 mg/kg/injection, schedule: Q01DX001 (ip), vehicle: saline
[6] = dose: 200.0 mg/kg/injection, schedule: Q01DX001 (ip), vehicle: saline
[7] = dose: 400.0 mg/kg/injection, schedule: Q01DX001 (ip), vehicle: saline
[8] = dose: 100.0 mg/kg/injection, schedule: Q01DX009 (ip), vehicle: saline with Tween-80
[9] = dose: 200.0 mg/kg/injection, schedule: Q01DX009 (ip), vehicle: saline with Tween-80
[10] = dose: 400.0 mg/kg/injection, schedule: Q01DX009 (ip), vehicle: saline with Tween-80
[11] = dose: 400.0 mg/kg/injection, schedule: Q01DX001 (ip), vehicle: carboxymethylcellulose (CMC)
[12] = dose: 50.0 mg/kg/injection, schedule: Q04DX003 (ip), vehicle: saline with Tween-80
[13] = dose: 100.0 mg/kg/injection, schedule: Q04DX003 (ip), vehicle: saline with Tween-80
[14] = dose: 200.0 mg/kg/injection, schedule: Q04DX003 (ip), vehicle: saline with Tween-80
[15] = dose: 100.0 mg/kg/injection, schedule: Q04DX003 (ip), vehicle: saline
[16] = dose: 200.0 mg/kg/injection, schedule: Q04DX003 (ip), vehicle: saline
[17] = dose: 400.0 mg/kg/injection, schedule: Q04DX003 (ip), vehicle: saline with Tween-80

Measured: T/C

O=C1c2ccccc2C(=O)N1O
inactive: [1] 95 % of control | [2] 90 % of control | [3] 95 % of control

C=C1CC(Cc2ccccc2)OC1=O (stereo not given)
inactive: [4] 94 % of control

Nc1nc(I)c2[nH]cnc2n1
inactive: dose: 25.0 mg/kg/injection, schedule: Q01DX Z (ip), vehicle: methylcellulose (MC) 95 % of control | dose: 50.0 mg/kg/injection, schedule: Q01DX Z (ip), vehicle: methylcellulose (MC) 103 % of control | dose: 100.0 mg/kg/injection, schedule: Q01DX Z (ip), vehicle: methylcellulose (MC) 108 % of control

CCC(CC)C(O)(C(=O)O)C(CC)CC
inactive: [5] 95 % of control | [6] 89 % of control | [7] 97 % of control

CNC(=O)OCCOc1ccccc1
inactive: [4] 109 % of control | [8] 105 % of control and 116 % of control | dose: 100.0 mg/kg/injection, schedule: Q04DX002 (ip), vehicle: saline with Tween-80 97 % of control and 89 % of control | dose: 200.0 mg/kg/injection, schedule: Q01DX001 (ip), vehicle: saline with Tween-80 108 % of control | [9] 96 % of control and 101 % of control | dose: 200.0 mg/kg/injection, schedule: Q04DX002 (ip), vehicle: saline with Tween-80 94 % of control and 90 % of control | dose: 400.0 mg/kg/injection, schedule: Q01DX001 (ip), vehicle: saline with Tween-80 111 % of control | [10] 108 % of control and 110 % of control | dose: 400.0 mg/kg/injection, schedule: Q04DX002 (ip), vehicle: saline with Tween-80 119 % of control and 87 % of control

CCCCCCCC(C(=O)OCC)C(=O)OCC
inactive: [2] 103 % of control | [3] 100 % of control | [11] 100 % of control

COC(=O)[C@@H]1c2cc3c(c(O)c2[C@@H](OC)C[C@@]1(C)O)C(=O)c1c(O)cc2c(c1C3=O)OC1O[C@@]2(C)[C@H](O)[C@@H](N(C)C)[C@@H]1O
inactive: dose: 3.12 mg/kg/injection, schedule: Q01DX015 (ip), vehicle: carboxymethylcellulose (CMC) 104 % of control | dose: 6.25 mg/kg/injection, schedule: Q01DX009 (ip), vehicle: saline 106 % of control | dose: 6.25 mg/kg/injection, schedule: Q01DX015 (ip), vehicle: carboxymethylcellulose (CMC) 108 % of control | dose: 12.5 mg/kg/injection, schedule: Q01DX009 (ip), vehicle: saline 112 % of control | dose: 12.5 mg/kg/injection, schedule: Q01DX015 (ip), vehicle: carboxymethylcellulose (CMC) 120 % of control | dose: 25.0 mg/kg/injection, schedule: Q01DX009 (ip), vehicle: saline 109 % of control | [1] 105 % of control | dose: 50.0 mg/kg/injection, schedule: Q01DX009 (ip), vehicle: saline 112 % of control | dose: 50.0 mg/kg/injection, schedule: Q01DX015 (ip), vehicle: carboxymethylcellulose (CMC) 122 % of control | [2] 117 % of control

CC(=O)Oc1c2ccccc2cc2c1ccc1ccccc12
inactive: dose: 100.0 mg/kg/injection, schedule: Q04DX002 (ip), vehicle: Klucel (hydroxypropylcellulose) (HPC) 119 % of control | dose: 200.0 mg/kg/injection, schedule: Q04DX002 (ip), vehicle: Klucel (hydroxypropylcellulose) (HPC) 100 % of control | dose: 400.0 mg/kg/injection, schedule: Q04DX002 (ip), vehicle: Klucel (hydroxypropylcellulose) (HPC) 106 % of control

O=C1C(=O)c2ccccc2C([O-])=C1[n+]1ccccc1
inactive: dose: 50.0 mg/kg/injection, schedule: Q01DX009 (ip), vehicle: saline with Tween-80 97 % of control | [12] 103 % of control | [8] 95 % of control | [13] 97 % of control | [9] 93 % of control | [14] 98 % of control

CCOC(=O)CNC(=O)NCc1ccccc1
inactive: [8] 106 % of control | [9] 102 % of control | [10] 105 % of control

O=[N+]([O-])c1ccc(Oc2ccc(Cl)cc2)cc1
inactive: dose: 100.0 mg/kg/injection, schedule: Q04DX003 (ip), vehicle: Klucel (hydroxypropylcellulose) (HPC) 94 % of control | dose: 200.0 mg/kg/injection, schedule: Q04DX003 (ip), vehicle: Klucel (hydroxypropylcellulose) (HPC) 102 % of control | dose: 400.0 mg/kg/injection, schedule: Q04DX003 (ip), vehicle: Klucel (hydroxypropylcellulose) (HPC) 94 % of control

CCOC(=O)/C=C/C(=O)O.[Fe]
inactive: [15] 101 % of control | [16] 95 % of control | dose: 400.0 mg/kg/injection, schedule: Q04DX003 (ip), vehicle: saline 101 % of control

CC(=O)Nc1ccc(/C=N/NC(=O)C(O)(c2ccccc2)c2ccccc2)cc1
inactive: [2] 97 % of control | [3] 103 % of control | [11] 97 % of control

Cc1cc(O)c(O)c(S(=O)(=O)c2ccc(N)cc2)c1
inactive: dose: 75.0 mg/kg/injection, schedule: Q01DX009 (ip), vehicle: carboxymethylcellulose (CMC) 93 % of control | dose: 150.0 mg/kg/injection, schedule: Q01DX009 (ip), vehicle: carboxymethylcellulose (CMC) 89 % of control | dose: 300.0 mg/kg/injection, schedule: Q01DX009 (ip), vehicle: carboxymethylcellulose (CMC) 86 % of control

CC/C(=N/N(C)C)c1ccccc1
inactive: [15] 96 % of control | [16] 93 % of control

CN(C)CCC(=O)c1ccc2ccccc2c1
inactive: dose: 9.38 mg/kg/injection, schedule: Q01DX001 (ip), vehicle: saline 100 % of control | dose: 18.75 mg/kg/injection, schedule: Q01DX001 (ip), vehicle: saline 101 % of control | dose: 37.5 mg/kg/injection, schedule: Q01DX001 (ip), vehicle: saline 105 % of control

CCOc1ccccc1NC(=O)C1CCCCC1C(=O)O (stereo not given)
inactive: dose: 100.0 mg/kg/injection, schedule: Q04DX002 (ip), vehicle: saline 96 % of control | dose: 200.0 mg/kg/injection, schedule: Q04DX002 (ip), vehicle: saline 112 % of control

CSc1nnc(-c2ccc(OCCOc3ccc(C(C)(C)CC(C)(C)C)cc3)cc2)s1
inactive: [13] 89 % of control | [14] 94 % of control | [17] 91 % of control

CC(=O)Nc1ccc(C(N)=O)cn1
inactive: dose: 8.0 mg/kg/injection, schedule: Q01DX009 (ip), vehicle: carboxymethylcellulose (CMC) 98 % of control | dose: 16.0 mg/kg/injection, schedule: Q01DX009 (ip), vehicle: carboxymethylcellulose (CMC) 98 % of control | dose: 32.0 mg/kg/injection, schedule: Q01DX009 (ip), vehicle: carboxymethylcellulose (CMC) 98 % of control | dose: 64.0 mg/kg/injection, schedule: Q01DX001 (ip), vehicle: carboxymethylcellulose (CMC) 94 % of control | dose: 64.0 mg/kg/injection, schedule: Q01DX009 (ip), vehicle: carboxymethylcellulose (CMC) 118 % of control | dose: 128.0 mg/kg/injection, schedule: Q01DX001 (ip), vehicle: carboxymethylcellulose (CMC) 92 % of control | dose: 256.0 mg/kg/injection, schedule: Q01DX001 (ip), vehicle: carboxymethylcellulose (CMC) 97 % of control | dose: 512.0 mg/kg/injection, schedule: Q01DX001 (ip), vehicle: carboxymethylcellulose (CMC) 92 % of control

O=C(c1ccccc1)C1NC1c1ccc([N+](=O)[O-])cc1 (stereo not given)
inactive: dose: 50.0 mg/kg/injection, schedule: Q01DX001 (ip), vehicle: Klucel (hydroxypropylcellulose) (HPC) 89 % of control | dose: 100.0 mg/kg/injection, schedule: Q01DX001 (ip), vehicle: Klucel (hydroxypropylcellulose) (HPC) 97 % of control | dose: 200.0 mg/kg/injection, schedule: Q01DX001 (ip), vehicle: Klucel (hydroxypropylcellulose) (HPC) 97 % of control | dose: 400.0 mg/kg/injection, schedule: Q01DX001 (ip), vehicle: Klucel (hydroxypropylcellulose) (HPC) 92 % of control

O=[N+]([O-])c1ccc(-c2nn[nH]n2)cc1
inactive: [5] 92 % of control | [15] 103 % of control | [6] 103 % of control | [16] 93 % of control | dose: 264.0 mg/kg/injection, schedule: Q04DX003 (ip), vehicle: acetone 96 % of control | dose: 264.0 mg/kg/injection, schedule: Q04DX003 (ip), vehicle: saline with Tween-80 106 % of control | [7] 105 % of control | dose: 400.0 mg/kg/injection, schedule: Q04DX003 (ip), vehicle: acetone 102 % of control

Cc1ccc(S(=O)(=O)OCC2C3CCC(C3=O)C2COS(=O)(=O)c2ccc(C)cc2)cc1 (stereo not given)
inactive: [12] 98 % of control | [13] 96 % of control and 106 % of control | [14] 98 % of control | [17] 86 % of control

Reference: PubChem BioAssay AID248 (DTP/NCI, 2004)
